# Results from patent US5759768A, “Assays for factors affecting circularization of DNA, assays for factors affecting DNA integration, factors, and uses thereof” (priority 1995, dated 1998).
# Columns and labels:
# [1] = system: preintegration complexes; experiment: Circularization mediated by partially purified preintegration complexes; type: biochemical, HIV-1; settings: for circular DNA formed by preintegration complexes: 37° C., 45 min
# Experimental: Viral preintegration complexes were partially purified from cytoplasmic extracts by Sephacryl S400 gel filtration chromatography. Cytoplasmic extracts (0.8 ml) were loaded onto a 22-ml Sephacryl S400 (Pharmacia) column, 28 cm in height, equilibrated in buffer K containing 0.5% Triton X-100 at 4° C. Fractions (0.5 ml) were collected at a flow rate of approximately 0.2 ml/min.
# The linear viral DNA present in cytoplasmic extracts is a part of the nucleoprotein preintegration complex that can be separated from the bulk of cellular proteins by gel filtration chromatography [Farnet and Haseltine, J. Virol., 65: 1910-1915 (1991)]. Preintegration complexes were partially purified by Sephacryl S400 column chromatography and tested for the ability to mediate the circularization of viral DNA. Cytoplasmic extracts (1 ml, vol) were fractionated by Sephacryl S-400 gel filtration chromatography as previously described. The void volume fractions of the column, containing the peak of viral DNA, were pooled (total volume, 1.5 ml) and incubated as follows with the results shown in FIG. 20. Lane 1: column fractions were incubated at 37° C. for 45 minutes; lane 2: linear .phi.X174 DNA was added to column fractions to a final concentrations of 650 ng/ml and incubated at 37° C. for 45 minutes; lane 3: ATPγS was added to column fractions and incubated at 37° C. for 45 minutes; lane 4: same as lane 3, except that an equal volume of cytoplasmic extract from uninfected SupT1 cells was added prior to incubation; lane 5: ATP was added to column fractions to a final concentration of 1 mM and incubated at 37° C. for 45 minutes; lane 6: same as lane 5, except that an equal volume of cytoplasmic extract from uninfected SupT1 cells was added prior to incubation. […] Lane 1: products of the reaction shown in FIG. 20, lane 4, digested with SalI and PstI; lane 2: products of the reaction shown in FIG. 20, lane 5, digested with SalI and PstI; lane 3: products of the reaction shown in FIG. 20, lane 6, digested with SalI and PstI. […] The formation of all types of circular produts was dependent upon the addition of ATP, as viral DNA in column fractions remained linear during incubation at 37° C. in the absence of added ATP (FIG. 20, lane 1), regardless of the addition of uninfected SupT1 cell extracts.
# [2] = system: linear viral DNA (circularization); type: biochemical, HIV-1
# Experimental: The chronically HIV-1 infected Molt IIIB human T cell line (HTLV IIIB virus strain) was the source of virus for cell-free infections. This human T cell line constitutively produces a low level of the HTLV-111B strain of HIV-1. Culture supernatant containing a high concentration of virus was prepared by incubating 300×10^6 Molt IIIB cells in 50 ml fresh RPMI 1640 medium containing 20% fetal calf serum and 10 ng of phorbol 12-myristate 13-acetate per ml for 20-24 hours. […] Cytoplasmic extracts (3 ml) were prepared 4-4.5 hours post-infection, by a modification of the procedure of Brown et al., Cell 49: 342-356 (1987).
# At specified times after infection, cells were washed twice with buffer K (20 mM Hepes, pH 7.4, 150 mM KCl, 5 mM MgCl2, 1 mM dithiothreitol, […]) and then lysed at a concentration of 33×10^6 cells per ml in the same buffer containing 0.025% digitonin or 0.025% Triton X-100. Cells were extracted for 10 minutes at room temperature, and the lysate was centrifuged at 1000×g for 3 minutes, and is referred to as "cytoplasmic extract". Cytoplasmic extract was the source of viral DNA for analyses in the assays described below. The pellet from the initial low-speed centrifugation contained cell debris and intact nuclei and is called the "nuclear pellet". Cell extracts from uninfected SupT1 cells were prepared in the same manner.
# Viral DNA present in cytoplasmic extracts was deproteinated by incubation with proteinase K (1 mg/ml)/10 mM EDTA/0.5% SDS for 1 hour at 55° C. Samples were extracted successively with phenol/chloroform [1:1 (vol/vol)] and chloroform. DNA was ethanol-precipitated, washed with 70% ethanol, resuspended in 10 mM Tris.HCI (pH 7.4), and treated with RNase A (20 μpg/ml)for 1 hour at […]. before analysis by agarose gel electrophoresis and Southern blotting.
# DNA samples were layered on 0.8% agarose gels and electrophoresed at 1 V/cm for 15 hour in Tris/acetate/EDTA buffer. After electrophoresis, DNA was blotted by capillary action onto nitrocellulose (0.45 μm, Schleicher & Schuell).
# Cell extracts were prepared from cells four to five hours after infection with HIV-1, using the above-described methods to yield fully functional viral preintegration complexes. […] In all cases, a HIV-1 LTR-containing DNA fragment was used as a hybridization probe. Therefore, only LTR-containing DNA fragments are detected. […] Lane 5: Unintegrated viral DNA prepared by Hirt extraction of SupT1 cells infected 24 hours earlier with concentrated HIV-1. […] Viral DNA was purified from extracts incubated with 1 mM ATP for 15 minutes (lanes 1 and 4), with 1 mM ATP for 45 minutes (lanes 3 and 6), or with 1 mM ATPγS for 45 minutes (lanes 2 and 5). Lanes 1-3: uncut viral DNA; lanes 4-6: viral DNA was cut with SalI prior to electrophorosis. Lane 7: linear viral DNA, prepared from untreated extracts was digested with SalI prior to electrophorosis. Lane 8: unintegrated viral DNA prepared by Hirt extraction of infected cells, as described with respect to FIG. 14, digested with SalI prior to electrophoresis. […] Lanes 1-3. Viral DNA prepared from extracts treated with 1 mM ATP for 15 minutes, 30 minutes and 45 minutes, respectively. Lane 4: Viral DNA prepared from extract treated with 1 mM ATPγS for 45 minutes. Lanes 5-7: products of reactions shown in lanes 1-3, respectively, digested with SalI and PstI prior to electrophoresis. Lane 8: SalI, PstI digestion of viral DNA prepared from extract treated with 1 mM ATP for 90 minutes. Lane 9: SalI, PstI digestion of reaction products shown in lane 4. Lane 10: SalI, PstI digestion of unintegrated viral DNA prepared by Hirt extraction of infected cells.
smiles,measurement,setting,value
"Nc1ncnc2c1ncn2[C@@H]1O[C@H](COP(=O)(O)OP(=O)(O)OP(=O)(O)O)[C@@H](O)[C@H]1O [ATP, adenosine triphosphate]",1-LTR circle formation by preintegration complexes,"[1]; 1 mM ATP, plus cytoplasmic extract from uninfected SupT1 cells",restored the ability to form 1-LTR circles
same,2-LTR junction fragment from preintegration complexes,"[1]; 1 mM ATP, plus uninfected SupT1 cell extract",a small amount of new 2-LTR junction fragment was also detected
same,circular DNA formed by preintegration complexes,"[1]; 1 mM, column fractions",formation of only the 2-LTR circular DNA form
same,formation of circular viral DNA species,"[2]; 1 mM, 37° C., 45 min, no target DNA",formation of two viral DNA species that migrated more slowly than the linear form of viral DNA
same,1-LTR circle formation,[2]; 5 mM ATP,considerable
same,formation of 2-LTR circles,[2]; 5 mM ATP,completely inhibited
same,ATP concentration of peak 1-LTR circle formation,"[2]; 37° C., 45 or 90 min",2 mM
same,optimal ATP concentration for formation of 2-LTR circles,"[2]; 37° C., 45 or 90 min",1 mM
same,1-LTR [ATP] optimum,[2]; table,2 mM
same,Autointegration [ATP] optimum,[2]; table,1 mM
Nc1ncnc2c1ncn2[C@@H]1O[C@H](COP(=O)(O)OP(=O)(O)OP(O)(O)=S)[C@@H](O)[C@H]1O [ATPγS],circular DNA formed by preintegration complexes,[1]; in presence and absence of uninfected cell extracts,exclusive formation of autointegration 2-LTR circles
same,induction of 1-LTR circular form,"[2]; 1 mM, 37° C., 45 min",unable to induce detectable amounts of the 1-LTR circular forms
same,induction of 2-LTR circles,"[2]; 1 mM, 37° C., 45 min",induced the formation of 2-LTR circles
same,1-LTR circles (restriction analysis),"[2]; 1 mM, 45 min",no detectable 1-LTR circles
same,origin of 2-LTR circles (SalI/PstI digestion),"[2]; 1 mM, 45 min",entirely the products of autointegration
same,simple 2-LTR circles (SalI/PstI digestion),"[2]; 1 mM, 45 min",absence of simple 2-LTR circles among the reaction products
same,type of circular viral DNA formed,"[2]; 1 mM, 45 min, restriction enzyme analysis",exclusively of the 2-LTR type
